Columns and labels:
[1] = biological target: human TYK2 (JH2domain-pseudokinase) (Homo sapiens (Human), UniProt P29597); experiment: TYK2 JH2 Domain Binding Assay (KINOMEscan); conditions: read-out: hTYK2_JH2_Binding (Kd)
Procedure: Binding constants for compounds of the present invention against the JH2 domain were determined by the following protocol for a KINOMEscan® assay (DiscoveRx). A fusion protein of a partial length construct of human TYK2 (JH2domain-pseudokinase) (amino acids G556 to D888 based on reference sequence NP_003322.3) and the DNA binding domain of NFkB was expressed in transiently transfected HEK293 cells. From these HEK 293 cells, extracts were prepared in M-PER extraction buffer (Pierce) in the presence of Protease Inhibitor Cocktail Complete (Roche) and Phosphatase Inhibitor Cocktail Set II (Merck) per manufacturers' instructions. The TYK2 (JH2domain-pseudokinase) fusion protein was labeled with a chimeric double-stranded DNA tag containing the NFkB binding site (5′-[…]-3′) fused to an amplicon for qPCR readout, which was added directly to the expression extract (the final concentration of DNA-tag in the binding reaction is 0.1 nM).
The liganded beads were blocked with excess biotin and washed with blocking buffer (SeaBlock (Pierce), 1% BSA, 0.05% Tween 20, 1 mM DTT) to remove unbound ligand and to reduce nonspecific binding.
Extracts were used directly in binding assays without any enzyme purification steps at a ≥10,000-fold overall stock dilution (final DNA-tagged enzyme concentration <0.1 nM). Extracts were loaded with DNA-tag and diluted into the binding reaction in a two step process. First extracts were diluted 1:100 in 1× binding buffer (PBS/0.05% Tween 20/10 mM DTT/0.1% BSA/2 μg/ml sonicated salmon sperm DNA) containing 10 nM DNA-tag. This dilution was allowed to equilibrate at room temperature for 15 minutes and then subsequently diluted 1:100 in 1× binding buffer. […] Kds were determined using an 11-point 3-fold compound dilution series with three DMSO control points. […] The compounds were then diluted directly into the assays such that the final concentration of DMSO was 0.9%. All reactions performed in polypropylene 384-well plates. Each was a final volume of 0.02 mL. Assays were incubated with shaking for 1 hour at room temperature. Then the beads were pelleted and washed with wash buffer (1×PBS, 0.05% Tween 20) to remove displaced kinase and test compound. […] The qPCR protocol consisted of a 10 minute hot start at 95° C., followed by 35 cycles of 95° C. for 15 seconds, 60° C. for 1 minute.
The compounds were then diluted directly into the assays such that the final concentration of DMSO was 0.9%. […] Kd measurements were performed in duplicate.
Binding constants (Kd values) were calculated with a standard dose-response curve using the Hill equation: […]
The Hill Slope was set to −1.

[2] = test system: IL-12 induced STAT4 phophorylation mediated by Tyk2/JAK2 (heterodimeric complex); experiment: IL-12 Induced pSTAT4 in Human PBMC; format: cell-based; conditions: for IC50: 1.7 ng/mL IL-12, read-out: PBMC_IL-12-pSTAT4 (IC50); for inhibition at 0.05 µM: Homo sapiens, PBMC, 0.05 μM compound, 1.7 ng/mL IL-12, read-out: PBMC_IL-12-pSTAT4 (% Inhibition_Average_@0.05 uM) [%]
Procedure: Human PBMC are isolated from buffy coat and are stored frozen for assays as needed. […] 15 μl of compound or DMSO is added to the well at the desired concentrations and incubated at 1 hr at 37° C. 15 μl of stimulus (final concentration of 1.7 ng/mL IL-12) is added for 30 minutes prior to pSTAT4 and total STAT4 analysis using cell lysates prepared and analyzed by MSD reagents as per manufacturer protocol. The final DMSO concentration of compound in the assay is 0.1%.
The IL-12 Induced pSTAT4 assay evaluates the inhibition of IL-12 induced STAT4 phophorylation mediated by Tyk2/JAK2 (heterodimeric complex).

Chain of human TYK2 (JH2domain-pseudokinase) (P29597 556-888): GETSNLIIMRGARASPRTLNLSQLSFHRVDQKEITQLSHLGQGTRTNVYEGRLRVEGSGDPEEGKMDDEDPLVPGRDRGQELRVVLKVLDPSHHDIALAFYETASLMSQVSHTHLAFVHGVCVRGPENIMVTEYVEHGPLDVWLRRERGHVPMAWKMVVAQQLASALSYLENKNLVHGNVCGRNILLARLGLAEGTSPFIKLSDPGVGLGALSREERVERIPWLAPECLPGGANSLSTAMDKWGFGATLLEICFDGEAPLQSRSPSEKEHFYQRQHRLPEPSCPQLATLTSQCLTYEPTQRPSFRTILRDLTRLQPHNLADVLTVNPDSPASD

SMILES	Kd [1]	IC50 [2]	inhibition at 0.05 µM [2]
CNc1cc(Nc2cccn([C@H]3C[C@H](OC)C3)c2=O)nn2c(C(=O)N[C@H]3CC[C@@H]3OC)cnc12 (racemic) [Compound I-23, N-((1S,2S)-2-methoxycyclobutyl)-6-((1-((1r,3S)-3-methoxycyclobutyl)-2-oxo-1,2-dihydropyridin-3-yl)amino)-8-(methylamino)imidazo[1,2-b]pyridazine-3-carboxamide]	< 200 pM	< 100000 pM	70 to 90%
CNc1cc(Nc2cccn(-c3ncccc3F)c2=O)nn2c(C(=O)N[C@H]3CC[C@@H]3OC)cnc12 (stereo in doubt) [Compound I-17, 6-((3′-fluoro-2-oxo-2H-[1,2′-bipyridin]-3-yl)amino)-N-(2-methoxycyclobutyl)-8-(methylamino)imidazo[1,2-b]pyridazine-3-carboxamide]	< 200 pM	< 100000 pM	50 to 70%
CNc1cc(Nc2cccn(-c3ccccn3)c2=O)nn2c(C(=O)N[C@H]3CC[C@@H]3OC)cnc12 (stereo in doubt) [Compound I-18, N-(2-methoxycyclobutyl)-8-(methylamino)-6-((2-oxo-2H-[1,2′-bipyridin]-3-yl)amino)imidazo[1,2-b]pyridazine-3-carboxamide]	< 200 pM	< 100000 pM	70 to 90%
CNc1cc(Nc2cccn(-c3ccc(C)nc3)c2=O)nn2c(C(=O)N[C@H]3CC[C@@H]3OC)cnc12 (stereo in doubt) [Compound I-19, N-(2-methoxycyclobutyl)-6-((6′-methyl-2-oxo-2H-[1,3′-bipyridin]-3-yl)amino)-8-(methylamino)imidazo[1,2-b]pyridazine-3-carboxamide]	< 200 pM	< 100000 pM	50 to 70%
CNc1cc(Nc2cccn(C3CCOCC3)c2=O)nn2c(C(=O)N[C@H]3CC[C@@H]3OC)cnc12 (stereo in doubt) [Compound I-20, N-(2-methoxycyclobutyl)-8-(methylamino)-6-((2-oxo-1-(tetrahydro-2H-pyran-4-yl)-1,2-dihydropyridin-3-yl)amino)imidazo[1,2-b]pyridazine-3-carboxamide]	< 200 pM	< 100000 pM	70 to 90%
CNc1cc(-c2cn(C(C)C)c3ncccc23)nn2c(C(=O)N[C@@H]3COC[C@@H]3O)cnc12 [Compound I-13, N-((3R,4R)-4-hydroxytetrahydrofuran-3-yl)-6-(1-isopropyl-1H-pyrrolo[2,3-b]pyridin-3-yl)-8-(methylamino)imidazo[1,2-b]pyridazine-3-carboxamide]	200 to 1000 pM		

Second part, led by results:

Kd [1]	IC50 [2]	SMILES	inhibition at 0.05 µM [2]
< 200 pM	< 100000 pM	CNc1cc(Nc2cccn([C@H]3CC[C@H](OC)CC3)c2=O)nn2c(C(=O)N[C@H]3CC[C@@H]3OC)cnc12 (racemic) [Compound I-21, N-(2-methoxycyclobutyl)-6-((1-((1r,4S)-4-methoxycyclohexyl)-2-oxo-1,2-dihydropyridin-3-yl)amino)-8-(methylamino)imidazo[1,2-b]pyridazine-3-carboxamide]	> 90%
< 200 pM	< 100000 pM	CNc1cc(Nc2cccn([C@H]3[C@@H]4COC[C@@H]43)c2=O)nn2c(C(=O)N[C@H]3CC[C@@H]3OC)cnc12 (racemic) [Compound I-22, 6-((1-((1R,5S,6r)-3-oxabicyclo[3.1.0]hexan-6-yl)-2-oxo-1,2-dihydropyridin-3-yl)amino)-N-(2-methoxycyclobutyl)-8-(methylamino)imidazo[1,2-b]pyridazine-3-carboxamide]	70 to 90%
< 200 pM		CNc1cc(-c2cn(C3CCOCC3)c3ncccc23)nn2c(C(=O)N[C@@H]3CC[C@@H]3O)cnc12 [Compound I-8, N-((1R,2S)-2-hydroxycyclobutyl)-8-(methylamino)-6-(1-(tetrahydro-2H-pyran-4-yl)-1H-pyrrolo[2,3-b]pyridin-3-yl)imidazo[1,2-b]pyridazine-3-carboxamide]	

Reference: patent US11174264B2, “TYK2 inhibitors and uses thereof” (Nimbus Lakshmi, Inc., priority 2019, dated 2021)
